The term Ki denotes the equilibrium dissociation constant of an inhibitor or competing ligand from its target.

Bounds are passed on as bounds.

For experiment [1], the target named is D1 receptor (Homo sapiens, UniProt P21728). The experiment is described as follows: PDSP radioligand binding, dopamine D1 receptor.
Experiment [2] deals with 5-HT6 receptor (Homo sapiens, UniProt P50406). Description: PDSP radioligand binding, 5-HT6 receptor. The conditions noted are these: for 5-HT6 selectivity versus the other receptors tested: versus all other dopamine, serotonin and adrenergic receptors tested.
5-HT6 receptor, sequence (P50406 whole entry): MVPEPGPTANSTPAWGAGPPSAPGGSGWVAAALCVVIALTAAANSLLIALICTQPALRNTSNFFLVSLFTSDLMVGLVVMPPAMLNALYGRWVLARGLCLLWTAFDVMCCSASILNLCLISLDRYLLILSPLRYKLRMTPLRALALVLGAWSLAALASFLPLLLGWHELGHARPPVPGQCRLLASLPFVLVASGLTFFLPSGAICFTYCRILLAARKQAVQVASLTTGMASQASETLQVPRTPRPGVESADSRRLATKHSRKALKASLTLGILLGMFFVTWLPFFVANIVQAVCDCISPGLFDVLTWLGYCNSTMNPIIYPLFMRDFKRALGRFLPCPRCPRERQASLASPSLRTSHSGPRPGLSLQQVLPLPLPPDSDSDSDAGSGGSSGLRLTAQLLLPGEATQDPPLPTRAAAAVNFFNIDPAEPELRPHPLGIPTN
Experiment [3] concerns the target 5-HT5A receptor (Homo sapiens, UniProt P47898). Description: PDSP radioligand binding, 5-HT5A receptor.
Experiment [4] addresses 5-HT2A receptor (Homo sapiens, UniProt P28223). Description: PDSP radioligand binding, 5-HT2A receptor.
Experiment [5] concerns the target T1, α1A adrenergic receptor (Homo sapiens, UniProt P35348).
T1 sequence (P35348 1-466): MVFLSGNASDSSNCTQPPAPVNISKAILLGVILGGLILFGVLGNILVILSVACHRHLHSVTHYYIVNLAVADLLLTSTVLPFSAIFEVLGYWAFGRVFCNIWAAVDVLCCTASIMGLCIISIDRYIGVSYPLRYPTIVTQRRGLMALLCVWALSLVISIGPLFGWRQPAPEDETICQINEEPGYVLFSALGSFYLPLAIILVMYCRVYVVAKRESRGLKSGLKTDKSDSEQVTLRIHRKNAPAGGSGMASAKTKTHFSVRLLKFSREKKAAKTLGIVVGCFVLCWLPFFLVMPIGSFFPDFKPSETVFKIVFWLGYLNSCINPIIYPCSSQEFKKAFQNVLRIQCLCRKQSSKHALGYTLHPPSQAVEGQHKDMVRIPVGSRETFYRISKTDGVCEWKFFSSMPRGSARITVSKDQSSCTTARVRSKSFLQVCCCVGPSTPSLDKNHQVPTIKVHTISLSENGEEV
Description: PDSP radioligand binding, α1A adrenergic receptor.

The target of experiment [6] is 5-HT1B receptor (Homo sapiens, UniProt P28222). The experiment is described as follows: PDSP radioligand binding, 5-HT1B receptor.
5-HT1B receptor, sequence (P28222 whole entry): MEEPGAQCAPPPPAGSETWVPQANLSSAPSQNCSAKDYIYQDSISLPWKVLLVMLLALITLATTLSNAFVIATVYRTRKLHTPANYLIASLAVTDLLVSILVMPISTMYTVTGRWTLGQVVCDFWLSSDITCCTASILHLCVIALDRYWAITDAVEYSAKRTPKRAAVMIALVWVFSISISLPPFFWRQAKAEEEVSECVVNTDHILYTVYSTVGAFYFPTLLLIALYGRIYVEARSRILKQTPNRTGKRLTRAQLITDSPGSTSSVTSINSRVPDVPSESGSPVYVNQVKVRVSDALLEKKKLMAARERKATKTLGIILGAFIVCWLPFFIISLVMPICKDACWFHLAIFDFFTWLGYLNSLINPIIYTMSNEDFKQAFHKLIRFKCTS
The target of experiment [7] is D2 receptor (Homo sapiens, UniProt P14416). Description: PDSP radioligand binding, dopamine D2 receptor.
D2 receptor, sequence (P14416 whole entry): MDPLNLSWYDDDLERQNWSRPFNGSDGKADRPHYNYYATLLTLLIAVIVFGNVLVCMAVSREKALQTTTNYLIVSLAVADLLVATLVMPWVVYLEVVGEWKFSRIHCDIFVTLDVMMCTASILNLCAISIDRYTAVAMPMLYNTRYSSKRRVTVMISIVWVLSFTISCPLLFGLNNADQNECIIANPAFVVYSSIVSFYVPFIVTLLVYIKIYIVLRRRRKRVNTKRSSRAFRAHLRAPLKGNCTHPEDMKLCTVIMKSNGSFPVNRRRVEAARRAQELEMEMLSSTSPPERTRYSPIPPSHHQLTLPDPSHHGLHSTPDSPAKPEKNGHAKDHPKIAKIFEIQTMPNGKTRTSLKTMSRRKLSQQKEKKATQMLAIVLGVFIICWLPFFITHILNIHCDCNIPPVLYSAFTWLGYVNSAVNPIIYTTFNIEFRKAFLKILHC
Experiment [8] concerns the target T2, D4 receptor (Homo sapiens, UniProt P21917).
T2 sequence (P21917 1-419): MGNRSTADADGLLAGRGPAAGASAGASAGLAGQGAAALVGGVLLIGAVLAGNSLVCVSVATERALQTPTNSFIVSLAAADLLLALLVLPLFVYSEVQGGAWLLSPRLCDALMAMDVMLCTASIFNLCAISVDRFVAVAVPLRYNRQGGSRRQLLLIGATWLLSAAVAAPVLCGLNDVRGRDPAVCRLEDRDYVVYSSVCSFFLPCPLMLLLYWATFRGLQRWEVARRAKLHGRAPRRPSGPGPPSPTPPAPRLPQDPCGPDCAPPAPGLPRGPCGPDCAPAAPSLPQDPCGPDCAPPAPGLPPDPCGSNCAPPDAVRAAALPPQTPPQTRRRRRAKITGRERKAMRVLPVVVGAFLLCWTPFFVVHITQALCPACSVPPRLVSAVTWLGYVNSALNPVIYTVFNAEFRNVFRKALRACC
Description: PDSP radioligand binding, dopamine D4 receptor. The conditions noted are these: read-out: Ki D4.

Experiment [9] has as its target T3, α1B adrenergic receptor (Homo sapiens, UniProt P35368).
T3 sequence (P35368 1-520): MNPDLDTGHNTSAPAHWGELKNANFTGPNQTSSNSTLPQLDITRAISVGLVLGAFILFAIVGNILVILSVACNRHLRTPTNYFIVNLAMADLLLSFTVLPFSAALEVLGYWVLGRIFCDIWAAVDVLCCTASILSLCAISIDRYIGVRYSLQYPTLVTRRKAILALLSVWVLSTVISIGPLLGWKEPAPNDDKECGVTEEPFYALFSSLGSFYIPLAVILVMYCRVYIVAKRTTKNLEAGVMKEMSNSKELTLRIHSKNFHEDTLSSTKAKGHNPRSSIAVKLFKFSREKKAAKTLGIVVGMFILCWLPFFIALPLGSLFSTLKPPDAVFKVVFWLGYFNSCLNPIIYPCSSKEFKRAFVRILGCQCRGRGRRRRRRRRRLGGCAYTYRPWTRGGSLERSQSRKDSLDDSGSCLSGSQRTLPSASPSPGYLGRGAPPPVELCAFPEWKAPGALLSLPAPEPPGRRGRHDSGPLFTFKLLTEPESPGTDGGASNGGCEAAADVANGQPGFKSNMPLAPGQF
Description: PDSP radioligand binding, α1B adrenergic receptor. The conditions noted are these: for inhibition at 10 µM: read-out: Ki α1B.

In experiment [10] the target is T4, α2B adrenergic receptor (Homo sapiens, UniProt P18089).
T4 sequence (P18089 1-450): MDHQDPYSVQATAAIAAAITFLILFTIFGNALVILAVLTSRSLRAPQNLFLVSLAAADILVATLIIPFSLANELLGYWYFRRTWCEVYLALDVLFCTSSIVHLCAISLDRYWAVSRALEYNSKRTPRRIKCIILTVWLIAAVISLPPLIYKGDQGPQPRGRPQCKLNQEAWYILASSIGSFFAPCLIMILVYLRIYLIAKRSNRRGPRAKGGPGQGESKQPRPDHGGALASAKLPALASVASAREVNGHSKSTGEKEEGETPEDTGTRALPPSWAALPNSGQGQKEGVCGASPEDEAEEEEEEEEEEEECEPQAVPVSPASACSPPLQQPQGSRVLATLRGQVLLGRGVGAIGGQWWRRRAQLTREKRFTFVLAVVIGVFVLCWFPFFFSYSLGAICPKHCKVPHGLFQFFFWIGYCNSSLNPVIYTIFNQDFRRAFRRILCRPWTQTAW
The experiment is described as follows: PDSP radioligand binding, α2B adrenergic receptor.

In experiment [11] the target is T5, α2A adrenergic receptor (Homo sapiens, UniProt P08913).
T5 sequence (P08913 1-465): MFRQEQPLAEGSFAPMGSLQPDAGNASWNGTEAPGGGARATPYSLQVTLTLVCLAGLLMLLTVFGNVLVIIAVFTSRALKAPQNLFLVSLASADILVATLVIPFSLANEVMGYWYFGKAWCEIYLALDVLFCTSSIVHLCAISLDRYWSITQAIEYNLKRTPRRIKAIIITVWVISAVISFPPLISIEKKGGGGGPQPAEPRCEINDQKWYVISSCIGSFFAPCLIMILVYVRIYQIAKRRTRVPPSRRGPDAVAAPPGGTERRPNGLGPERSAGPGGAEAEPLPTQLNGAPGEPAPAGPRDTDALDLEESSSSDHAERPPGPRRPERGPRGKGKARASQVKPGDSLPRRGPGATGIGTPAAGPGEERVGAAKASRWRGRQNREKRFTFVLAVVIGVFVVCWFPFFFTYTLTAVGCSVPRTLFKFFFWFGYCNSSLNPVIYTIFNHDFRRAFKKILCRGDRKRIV
Description: PDSP radioligand binding, α2A adrenergic receptor.

Experiment [12] has as its target T6, α2C adrenergic receptor (Homo sapiens, UniProt P18825).
T6 sequence (P18825 1-462): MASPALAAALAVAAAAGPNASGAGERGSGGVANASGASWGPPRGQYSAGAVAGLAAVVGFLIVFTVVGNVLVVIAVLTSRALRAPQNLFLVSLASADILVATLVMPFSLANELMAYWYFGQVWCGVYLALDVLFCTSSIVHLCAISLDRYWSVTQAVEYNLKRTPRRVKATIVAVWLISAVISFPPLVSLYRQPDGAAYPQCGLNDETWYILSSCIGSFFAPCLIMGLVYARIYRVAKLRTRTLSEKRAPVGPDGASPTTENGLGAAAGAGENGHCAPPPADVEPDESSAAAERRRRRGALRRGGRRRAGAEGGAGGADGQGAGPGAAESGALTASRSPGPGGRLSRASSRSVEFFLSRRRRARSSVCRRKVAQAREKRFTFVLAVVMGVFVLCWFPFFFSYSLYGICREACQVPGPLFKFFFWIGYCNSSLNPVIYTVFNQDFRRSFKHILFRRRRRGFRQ
Description: PDSP radioligand binding, α2C adrenergic receptor.

Experiment [13] concerns the target D3 receptor (Homo sapiens, UniProt P35462). Description: PDSP radioligand binding, dopamine D3 receptor.
The target in experiment [14] is D5 receptor (Homo sapiens, UniProt P21918). Description: PDSP radioligand binding, dopamine D5 receptor. The conditions noted are these: read-out: Ki D5.
D5 receptor, sequence (P21918 whole entry): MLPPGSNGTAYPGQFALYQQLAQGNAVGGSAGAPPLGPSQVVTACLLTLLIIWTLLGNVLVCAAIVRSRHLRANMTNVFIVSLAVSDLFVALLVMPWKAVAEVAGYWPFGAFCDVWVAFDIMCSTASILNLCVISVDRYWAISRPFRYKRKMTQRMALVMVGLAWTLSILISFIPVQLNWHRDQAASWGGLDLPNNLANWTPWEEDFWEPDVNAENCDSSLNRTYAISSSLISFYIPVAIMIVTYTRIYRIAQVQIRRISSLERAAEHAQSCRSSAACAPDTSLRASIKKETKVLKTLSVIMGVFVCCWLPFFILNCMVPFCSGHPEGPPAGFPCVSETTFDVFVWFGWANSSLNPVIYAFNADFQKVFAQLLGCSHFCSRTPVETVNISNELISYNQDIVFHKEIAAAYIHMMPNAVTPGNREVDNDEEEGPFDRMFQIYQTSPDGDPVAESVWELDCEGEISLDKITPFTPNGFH
For experiment [15], the target named is T7, 5-HT1A receptor (Homo sapiens, UniProt P08908).
T7 sequence (P08908 1-422): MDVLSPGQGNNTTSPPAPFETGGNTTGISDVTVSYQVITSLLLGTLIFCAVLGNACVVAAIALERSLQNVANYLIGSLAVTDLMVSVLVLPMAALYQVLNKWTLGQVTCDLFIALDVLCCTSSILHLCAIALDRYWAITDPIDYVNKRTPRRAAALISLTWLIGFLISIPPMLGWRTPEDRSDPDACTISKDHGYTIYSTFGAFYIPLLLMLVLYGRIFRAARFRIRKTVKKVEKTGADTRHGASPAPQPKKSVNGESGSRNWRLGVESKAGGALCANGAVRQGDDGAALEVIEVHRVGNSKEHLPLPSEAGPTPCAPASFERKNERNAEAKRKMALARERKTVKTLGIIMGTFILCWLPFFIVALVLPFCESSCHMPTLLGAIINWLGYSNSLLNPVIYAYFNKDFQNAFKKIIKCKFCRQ
Description: PDSP radioligand binding, 5-HT1A receptor.

5-HT5A receptor, sequence (P47898 whole entry): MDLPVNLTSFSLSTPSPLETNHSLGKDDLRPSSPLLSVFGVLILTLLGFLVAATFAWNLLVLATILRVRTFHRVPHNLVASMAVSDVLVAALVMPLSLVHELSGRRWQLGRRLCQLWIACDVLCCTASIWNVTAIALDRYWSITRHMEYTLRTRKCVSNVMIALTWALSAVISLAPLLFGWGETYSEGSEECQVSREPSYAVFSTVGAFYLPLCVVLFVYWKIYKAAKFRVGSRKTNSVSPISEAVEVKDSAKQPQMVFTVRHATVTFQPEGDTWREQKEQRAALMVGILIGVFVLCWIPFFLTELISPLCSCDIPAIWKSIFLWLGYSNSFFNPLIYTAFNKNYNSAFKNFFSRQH
D1 receptor, sequence (P21728 whole entry): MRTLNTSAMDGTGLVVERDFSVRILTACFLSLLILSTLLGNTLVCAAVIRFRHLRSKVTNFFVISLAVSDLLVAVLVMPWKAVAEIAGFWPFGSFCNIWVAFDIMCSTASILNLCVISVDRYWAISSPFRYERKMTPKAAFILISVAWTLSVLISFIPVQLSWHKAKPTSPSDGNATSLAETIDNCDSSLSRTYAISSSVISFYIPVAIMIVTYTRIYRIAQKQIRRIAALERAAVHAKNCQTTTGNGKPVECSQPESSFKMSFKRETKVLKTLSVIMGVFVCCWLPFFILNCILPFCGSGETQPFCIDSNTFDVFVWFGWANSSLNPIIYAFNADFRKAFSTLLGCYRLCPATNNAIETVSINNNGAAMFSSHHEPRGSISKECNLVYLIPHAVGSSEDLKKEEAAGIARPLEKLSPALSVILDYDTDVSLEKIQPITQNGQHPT
5-HT2A receptor, sequence (P28223 whole entry): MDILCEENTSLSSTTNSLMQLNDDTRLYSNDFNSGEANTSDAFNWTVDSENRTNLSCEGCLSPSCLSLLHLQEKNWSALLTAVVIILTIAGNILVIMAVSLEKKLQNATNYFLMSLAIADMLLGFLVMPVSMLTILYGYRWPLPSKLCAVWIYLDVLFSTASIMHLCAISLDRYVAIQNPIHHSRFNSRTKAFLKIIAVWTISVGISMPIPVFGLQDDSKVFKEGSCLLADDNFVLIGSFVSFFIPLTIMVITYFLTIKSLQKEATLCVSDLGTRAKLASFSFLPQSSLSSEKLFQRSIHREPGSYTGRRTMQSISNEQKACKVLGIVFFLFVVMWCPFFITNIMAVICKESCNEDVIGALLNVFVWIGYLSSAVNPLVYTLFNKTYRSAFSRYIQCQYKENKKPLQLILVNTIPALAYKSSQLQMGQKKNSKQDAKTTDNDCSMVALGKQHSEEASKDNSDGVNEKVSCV
D3 receptor, sequence (P35462 whole entry): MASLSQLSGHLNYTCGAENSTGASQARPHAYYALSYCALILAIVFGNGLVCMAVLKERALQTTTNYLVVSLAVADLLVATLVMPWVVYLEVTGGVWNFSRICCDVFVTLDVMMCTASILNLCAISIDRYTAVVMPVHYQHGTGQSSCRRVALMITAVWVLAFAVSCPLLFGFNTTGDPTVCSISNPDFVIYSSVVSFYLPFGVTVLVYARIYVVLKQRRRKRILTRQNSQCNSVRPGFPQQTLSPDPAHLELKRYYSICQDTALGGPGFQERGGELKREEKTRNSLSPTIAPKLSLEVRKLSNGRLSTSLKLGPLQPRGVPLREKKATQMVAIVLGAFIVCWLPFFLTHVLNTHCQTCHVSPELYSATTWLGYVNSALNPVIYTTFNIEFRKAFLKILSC

As to `COc1cc2c3c(c1OC)-c1ccccc1C3CNCC2` (stereo not shown) [Compound 10, 6,7-dimethoxy-2,3,4,11b-tetrahydro-1H-fluoreno[9,1-cd]azepine], the inhibition at 10 µM in experiment [1] (read-out: Ki D1), in [8] and in [14] was less than 10% throughout. The Ki worked out at 5 nM in experiment [2]; 578 nM in [3]; 1680 nM in experiment [4]; 545 nM in [5]; 255 nM in [6]; 780 nM in experiment [7]. Moreover, the inhibitory constant (Ki) in [9] stood at 2590 nM; in experiment [10], 1120 nM; in experiment [11], 1600 nM; in [12] it was 774 nM; in [13], 415 nM; in experiment [15] it was 110 nM. Further, in experiment [2], the “5-HT6 selectivity versus the other receptors tested” value is given as “at least 15 fold”.
With `CN1CCc2cc(O)c(O)c3c2C(C1)c1ccccc1-3` (stereo not shown) [Compound 13, 2-methyl-2,3,4,11b-tetrahydro-1H-fluoreno[9,1-cd]azepine-6,7-diol], the Ki in experiment [1] is 865 nM; in [2], 123 nM; in experiment [3] it was 363 nM; in experiment [4], 352 nM; in [5], greater than 10000 nM; in experiment [6], 1030 nM. In addition, the Ki was found to be 5820 nM in experiment [10], 1960 nM in [12] and 393 nM in [15]. Also, the inhibition at 10 µM in [7] (read-out: Ki D2), in [8], in [9], in [11] (read-out: Ki α2A), in experiment [13] (read-out: Ki D3) and in experiment [14] was less than 10% each time.
In the case of `Oc1cc2c3c(c1O)-c1ccccc1C3CNCC2` (stereo not shown) [Compound 11, 2,3,4,11b-tetrahydro-1H-fluoreno[9,1-cd]azepine-6,7-diol], the Ki in experiment [1] stood at 8820 nM; in experiment [2], 38 nM; in experiment [3], 244 nM; in [4] it was 1560 nM; in experiment [5], 3200 nM; in experiment [6], 451 nM. Also, the Ki in [10] was 2200 nM; in experiment [11] it was 2590 nM; in [12] it was 1110 nM; in [13], 2920 nM; in experiment [15], 151 nM. Moreover, the inhibition at 10 µM in experiment [8], in experiment [9] and in experiment [14] was less than 10% in each case.
On to `COc1cc2c3c(c1OC)-c1ccccc1C3CN(C)CC2` (stereo not shown) [Compound 12, 6,7-dimethoxy-2-methyl-2,3,4,11b-tetrahydro-1H-fluoreno[9,1-cd]azepine], for which the Ki in experiment [1] was 2460 nM; in [2] it was 5 nM; in experiment [3] it was 286 nM; in experiment [4], 811 nM; in experiment [5] it was 2860 nM; in experiment [7] it was 636 nM. Besides, the Ki was found to be 5870 nM in experiment [9], 1170 nM in experiment [11], 472 nM in experiment [12] and 79 nM in experiment [13]. The “5-HT6 selectivity versus the other receptors tested” value in [2] is “at least 15 fold”. For the same molecule, the inhibition at 10 µM in experiment [6] (read-out: Ki 5-HT1B), in experiment [8], in [10] (read-out: Ki α2B), in [14] and in experiment [15] (read-out: Ki 5-HT1A) was less than 10% in each case.

The values above are taken from publication PMC7442682 (Chemical biology & drug design, 2020).
